Square brackets hold non-standard residues; d marks the D form. Peptide text beside a SMILES is read from it. * marks the point of attachment. Trp(1-Me) = Cn1cc(C[C@H](N)C(=O)O)c2ccccc21; Tic = O=C(O)[C@@H]1Cc2ccccc2CN1; pGlu = O=C1CC[CH](C(=O)O)N1; Hyp = O=C(O)[CH]1C[CH](O)CN1; Phg = N[CH](C(=O)O)c1ccccc1; ΔPro = O=C(O)[C@@H]1C=CCN1; Pip = O=C(O)[C@@H]1CCCCN1; αMeP = C[C]1(C(=O)O)CCCN1; Cbz = O=C(OCc1ccccc1)*; Aze = O=C(O)[CH]1CCN1; Boc = CC(C)(C)OC(=O)*

Assay [1] has as its system human lymphocytes in culture. Briefly: stimulation of growth of human lymphocytes in culture after addition of specific antigens. The class given is cell-based. As to conditions: for immune response (immuno-stimulating activity): antigen not stated. An excerpt: (§1) In the following examples will first of all be given the data necessary for synthesis of the compounds according to the present invention. There will then be given data regarding their pharmacological activity, using methods widely known to be valid. In particular, for the pressure tests, spontaneously hyper-tensive rats were used (SHR from the company Charles River), operated in such a way as to enable pressure to be read even when the animals were awake and free to move. In order to evaluate the analgesic activity, the Hot Plate and Writhing Tests were used. For the anti-inflammatory effect the test of carraginine edema was used. Finally, for immuno-modulating activity the evaluation of the stimulation of growth of human lymphocytes in culture was resorted to, after the addition of specific antigens. The results obtained for each synthesized compound are given at the end of each example.

Assay [2] in a line: Hot Plate test (analgesic activity). Format: in vivo.
Source text: as §1
(Thermal pain tests record how soon the animal reacts.)

Assay [3] relates to spontaneously hyper-tensive rats (SHR). Briefly: pressure tests in awake spontaneously hypertensive rats. The class given is in vivo.
Source text: as §1

The next assay deals with carraginine edema. Briefly: carraginine edema test (anti-inflammatory effect). The class given is in vivo. As to conditions: dose not stated.
Source text: as §1

Assay [4] can be described thus: analgesic activity, test not specified (Hot Plate and Writhing Tests). Format: in vivo. Conditions: test and dose not stated.
Source text: as §1
For orientation: An intraperitoneal irritant provokes the stretching counted in writhing tests.

The nature of assay [5]: Writhing test (analgesic activity). Format: in vivo. Conditions: dose not stated.
Source text: as §1

Take `CCOC(=O)[C@@H]1Cc2c([nH]c3ccccc23)CN1C(=O)[C@H](C)NC(=O)[C@@H]1CCCN1C(=O)OCc1ccccc1` [compound 1, Z-(L)-Pro-(L)-Ala-(S)-CytOEt]: in assay [1] (PHA stimulation), the “response of lymphocytes stimulated by phytohemoagglutinine (PHA)” value is given as “increases the response of lymphocytes”. Also, in assay [2] (4 mg/Kg i.p.), the “pain killing effect under the Hot Plate test” value is given as “slight pain killing effect”. Further, in assay [3] (4 mg/Kg i.p.), the anti-hypertensive effect entry is recorded as “good anti-hypertensive effect” and the “duration of the anti-hypertensive effect” value is “maintained for a number of hours”.

As for `C[C@H](NC(=O)[C@@H]1CCCN1C(=O)OCc1ccccc1)C(=O)NCCc1c[nH]c2ccccc12` [compound 2, Z-(L)-Pro-(L)-Ala-TrpH], the “immune response (immuno-stimulating activity)” value (“immune response” below) in assay [1] is given as “increased, but to a lesser extent than in the previous compound”. In assay [3] (dose not stated), the anti-hypertensive effect entry was “comparable to that of compound 1”.

In the case of `C[C@H](NC(=O)[C@@H]1CCCN1C(=O)OCc1ccccc1)C(=O)N1CCc2c([nH]c3ccccc23)C1` [compound 3, Z-(L)-Pro-(L)-Ala-CytH], the anti-hypertensive effect entry in assay [3] (8 mg/Kg i.p.) is listed as “bland anti-hypertensive effect”.

On to `COC(=O)[C@H](Cc1ccc(OC)cc1)NC(=O)[C@H](C)NC(=O)[C@@H]1CCCN1C(=O)OCc1ccccc1` [compound 4, Z-(L)-Pro-(L)-Ala-(L)-OmtOMe] (Cbz-Pro-Ala-Tyr(Me)-OMe), for which the “immune response” value in assay [1] was “slightly increased”. In addition, the anti-hypertensive effect result in assay [3] (8 mg/Kg i.v.) was “bland anti-hypertensive effect”.

For the compound `COC(=O)[C@@H](NC(=O)[C@H](C)NC(=O)[C@@H]1CCCN1C(=O)OCc1ccccc1)c1ccccc1` [compound 5, Z-(L)-Pro-(L)-Ala-(L)-PhgOMe] (Cbz-Pro-Ala-[Phg]-OMe), the “analgesic effect using the Hot Plate test” value in assay [2] (dose not stated) is recorded as “moderate analgesic effect”. Moreover, the anti-hypertensive effect entry in assay [3] (8 mg/Kg i.p.) is “bland anti-hypertensive effect”.

As for `COC(=O)[C@H](Cc1cn(C)c2ccccc12)NC(=O)[C@H](C)NC(=O)[C@@H]1CCCN1C(=O)OCc1ccccc1` [compound 7, Z-(L)-Pro-(L)-Ala-(1)-Me-(L)-TrpOMe] (Cbz-Pro-Ala-[Trp(1-Me)]-OMe), in assay [3] (2 mg/Kg i.v.), the anti-hypertensive effect result is “good anti-hypertensive effect” and the reduction of pressure is given as 10%.

Regarding `COC(=O)[C@H](Cc1c[nH]c2ccccc12)NC(=O)[C@H](CC(C)C)NC(=O)c1ccco1` [compound 8, 2-Fur-(L)-Leu-(L)-TrpOMe], the “immune response” value in assay [1] is recorded as “strongly stimulated even with small doses of peptide”. In assay [3] (4 mg/Kg i.v.), the anti-hypertensive effect entry is “slight anti-hypertensive effect”. For the same compound, the anti-inflammatory effect result in the assay with carraginine edema is “slight anti-inflammatory effect”.

Consider `COC(=O)[C@H](Cc1c[nH]c2ccccc12)NC(=O)[C@H](CC(C)C)NC(=O)c1ccc[nH]1` [compound 9, 2-Pyrrolyl-(L)-Leu-(L)-TrpOMe], for which the anti-hypertensive effect result in assay [3] (dose not stated) is reported as “slight effect on pressure”. Moreover, the anti-inflammatory effect result with carraginine edema is on record as “bland reduction of inflammatory responses”.

As for `COC(=O)C(Cc1c[nH]c2ccccc12)NC(=O)C(CC(C)C)NC(=O)C1CCCN1C.Cl` (stereo not shown) [compound 10, N-Me-(L)-Pro(L)-Leu-(L)-TrpOMe.HCl], the “immune response” value in assay [1] is given as “slightly increased”. The analgesic activity result in assay [4] is recorded as “low analgesic effect”. Also, the anti-hypertensive effect result in assay [3] (2 mg/Kg i.v.) was “excellent anti-hypertensive effect”.

`COC(=O)[C@@H]1Cc2ccccc2CN1C(=O)[C@H](C)NC(=O)[C@@H]1CCCN1C(=O)OCc1ccccc1` [compound 11, Z-(L)-Pro-(L)-Ala-CypOMe] (Cbz-Pro-Ala-[Tic]-OMe): the anti-hypertensive effect entry in assay [3] (dose not stated) is “slight anti-hypertensive effect”. Moreover, the anti-inflammatory effect result in the assay with carraginine edema is given as “moderate anti-inflammatory effect”.

As for `COC(=O)C(Cc1c[nH]c2ccccc12)NC(=O)C(CC(C)C)NC(=O)C1(C)CCCN1C(=O)OC(C)(C)C` (stereo not drawn) [compound 12, Boc-(L)-Mep-(L)-Leu-(L)TrpOMe] (Boc-[αMeP]-Leu-Trp-OMe; configuration not given here), the anti-hypertensive effect result in assay [3] (dose not stated) was “bland anti-hypertensive effect”. Further, the anti-inflammatory effect entry with carraginine edema is on record as “reduction of the inflammatory response”.

For the compound `COC(=O)[C@H](Cc1c[nH]c2ccccc12)NC(=O)[C@H](CC(C)C)NC(=O)[C@@H]1C=CCN1C(=O)OC(C)(C)C` [compound 13, Boc-.gradient.^3.4 -(L)-Pro-(L)-Leu-(L)-TrpOMe] (Boc-[ΔPro]-Leu-Trp-OMe), the “immune response” value in assay [1] is “slightly increases the immune response”. The anti-hypertensive effect result in assay [3] (dose not stated) is “slightly anti-hypertensive”.

As for `COC(=O)[C@H](Cc1c[nH]c2ccccc12)NC(=O)[C@H](CC(C)C)NC(=O)[C@@H]1Cc2ccccc2N1C(=O)OCc1ccccc1` [compound 14, Z-(S)-Dhi-(L)-Leu-(L)-TrpOMe], in assay [4], the analgesic activity entry is on record as “moderate analgesic effect”. For the same compound, the anti-hypertensive effect result in assay [3] (dose not stated) is “bland reduction of pressure”.

In the case of `COC(=O)[C@H](Cc1c[nH]c2ccccc12)NC(=O)[C@H](CC(C)C)NC(=O)[C@@H]1CCCCN1C(=O)OCc1ccccc1` [compound 15, Z-(L)-Pip-(L)-Leu-(L)-TrpOMe] (Cbz-[Pip]-Leu-Trp-OMe), the “immune response” value in assay [1] is reported as “slight increase in immune response”. For the same compound, in assay [3] (2 mg/Kg i.v.), the anti-hypertensive effect entry is reported as “good anti-hypertensive effect” and the reduction of pressure result is listed as “up to 30%”. The anti-inflammatory effect entry in the assay on carraginine edema is listed as “consistent”.

As to `COC(=O)C(Cc1c[nH]c2ccccc12)NC(=O)C(CC(C)C)NC(=O)C1CC(O)CN1C(=O)OCc1ccccc1` (stereo not drawn) [compound 16, Z-(L)-Hyp-(L)-Leu-(L)-TrpOMe] (Cbz-[Hyp]-Leu-Trp-OMe; configuration not given here), in assay [4], the analgesic activity entry is reported as “modest analgesic effect”. In addition, in assay [3] (dose not stated), the anti-hypertensive effect entry is reported as “bland anti-hypertensive action”.

With `COC(=O)C(Cc1c[nH]c2ccccc12)NC(=O)C(CC(C)C)NC(=O)C1CCN1C(=O)OCc1ccccc1` [compound 17, Z-(S)-Aze-(L)-Leu-(L)-TrpOMe] (Cbz-[Aze]-Leu-Trp-OMe; configuration not given here), in assay [3] (dose not stated), the anti-hypertensive effect result was “slight anti-hypertensive effect”. For the same compound, in the assay on carraginine edema, the anti-inflammatory effect entry is “bland anti-inflammatory activity”.

Turning to `COC(=O)[C@H](Cc1c[nH]c2ccccc12)NC(=O)[C@H](CC(C)C)NC(=O)[C@@H]1CCCO1` [compound 18, (S)-Tfc-(L)-Leu-(L)-TrpOMe], the “immune response” value in assay [1] is listed as “stimulates the immune response in a moderate manner”. In assay [3] (dose not stated), the anti-hypertensive effect entry is “bland anti-hypertensive effect”.

Regarding `COC(=O)[C@H](Cc1c[nH]c2ccccc12)NC(=O)[C@H](CC(C)C)NC(=O)[C@@H]1CCC(=O)N1C(=O)OCc1ccccc1` [compound 19, Z-(L)-Pyr-(L)-Leu-(L)-TrpOMe], the anti-hypertensive effect entry in assay [3] (dose not stated) is “slight anti-hypertensive effect”. Also, in the assay with carraginine edema, the anti-inflammatory effect entry is “fair anti-inflammatory activity”.

As for `COC(=O)[C@@H]1Cc2c([nH]c3ccccc23)CN1C(=O)[C@H](CC(C)C)NC(=O)[C@@H]1CCC(=O)N1C(=O)OCc1ccccc1` [compound 20, Z-(L)-Pyr-(L)-Leu-(S)-CytOMe], the anti-hypertensive effect result in assay [3] (dose not stated) is “bland anti-hypertensive activity”. In the assay on carraginine edema, the anti-inflammatory effect entry is reported as “fair anti-inflammatory activity”.

For `COC(=O)[C@@H]1Cc2ccccc2CN1C(=O)[C@H](CC(C)C)NC(=O)[C@@H]1CCC(=O)N1C(=O)OCc1ccccc1` [compound 21, Z-CL)-Pyr-(L)-Leu-(S)-CypOMe], in assay [1], the “immune response” value is listed as “good immuno-stimulating activity”. In assay [3] (dose not stated), the anti-hypertensive effect entry was “slight anti-hypertensive activity”.

For `COC(=O)C(NC(=O)CNC(=O)C1CCC(=O)N1)c1ccccc1` (stereo not drawn) [compound 22, (L)-Pyr-Gly-(L)-PhgOMe] ([pGlu]-Gly-[Phg]-OMe; configuration not given here), the “immune response” value in assay [1] was “appears to increase the immune response”. For the same compound, in assay [3] (4 mg/Kg i.p.), the anti-hypertensive effect entry is given as “excellent anti-hypertensive activity” and the “reduction of pressure values” worked out at 20%. Further, in the assay with carraginine edema, the anti-inflammatory effect entry is given as “very good” and the reduction of edema is recorded as 70%.

In the case of `COC[C@H](Cc1ccccc1)NC(=O)CNC(=O)[C@@H]1CCC(=O)N1` [compound 23, (L)-Pyr-Gly-(L)-Pme], in assay [1], the “immune response” value is “good immuno-stimulating effect”. Also, the “reduction of contorsions during the Writhing test” value in assay [5] is reported as 80%. For the same compound, the analgesic activity result in assay [4] was “excellent analgesic effect”. Further, the anti-hypertensive effect entry in assay [3] (8 mg/Kg i.p.) is listed as “good anti-hypertensive activity”.

On to `COC(=O)[C@@H]1Cc2ccccc2CN1C(=O)CNC(=O)[C@@H]1CCC(=O)N1` [compound 24, (L)-Pyr-Gly-(L)-CypOMe] ([pGlu]-Gly-[Tic]-OMe), for which the anti-hypertensive effect entry in assay [3] (dose not stated) was “bland anti-hypertensive action”. Also, the anti-inflammatory effect result in the assay with carraginine edema is “moderate anti-inflammatory action”.

As for `COC(=O)[C@@H]1Cc2c([nH]c3ccccc23)CN1C(=O)[C@H](CC(C)C)NC(=O)[C@@H]1CCC(=O)N1` [compound 25, (L)-Pyr-(L)-Leu-(S)-CytOMe], the analgesic activity result in assay [4] is on record as “weak analgesic activity”. Also, in assay [3] (dose not stated), the anti-hypertensive effect entry is given as “bland anti-hypertensive effect”.

The values above are taken from patent US5504071A, “Compounds with a sequence of three radicals, the central one being α- a” (Polifarma S.p.A., priority 1990, dated 1996).
